# What was measured:
# WRN [1] = target: T1, WRN (Homo sapiens, UniProt Q14191); test: WRN ATPase activity assay (ADP-Glo); assay type: biochemical; details: 1-hr pre-incubation with enzyme; 100 μM ATP, 25 nM forked dsDNA, 1 nM WRN; geometric mean of at least 2 replicates
# T1 construct: A His-tagged construct of WRN (AA S2-S1235) was produced and used for the ATPase assay; His; made in house; host or cells: Sf9 insect cells (baculovirus, pFastBac1)
# Protocol: Compounds of the Examples were tested for WRN ATPase activity. WRN ATPase activity catalyzes ATP hydrolysis to produce ADP and phosphate. DNA encoding the target protein, 6×HIS-TEV-WRN-517-945, was produced, cloned and transfected as detailed in Example D. The amount of ADP produced was measured using ADP-Glo™ Kinase Assay kit from Promega Corporation in a Greiner white regular volume 384 wells assay plate (Greiner #781075). Data was normalized to a standard curve generated using various ADP concentrations and the corresponding luminescent signal intensities at each concentration. The assay conditions were optimized for enzyme concentration (WRN), substrate concentrations (ATP & dsDNA), and the linearity of the ATPase reaction, in the following assay buffer: 50 mM Tris-HCl, pH-7.5, 2 mM MgCl2, 50 mM NaCl, 1 mM EGTA, 0.01% P-20, 0.05% BSA, and 2 mM DTT prepared with nuclease free water.
# A serial dilution (1:3 scheme) of the compounds were prepared in neat DMSO, with 100 nL of the compounds dispensed in the 384 wells assay plate. An 1-hr pre-incubation of the compounds with enzyme was included. A His-tagged construct of WRN (AA S2-S1235) was produced and used for the ATPase assay. Maximum inhibition control wells were set up with the addition of only assay buffer, and no inhibition control wells were set up with neat DMSO without test compounds. The reaction was initiated by addition of 5 μL substrate mix (200 μM ultrapure ATP, and 50 nM dsDNA prepared in assay buffer) and incubated at 25° C. for 35 min. A forked dsDNA oligomer substrate was prepared by annealing equal amounts of oligo GPat-1 ([BHQ2][…]) and oligo GPat-2 ([…][TAM]) and was used as dsDNA substrate for WRN ATPase assay. A typical ATPase reaction consists of 25 nM forked dsDNA, 100 μM ATP, and 1 nM WRN prepared in assay buffer. The WRN ATPase reaction was stopped by the addition of 5 μL of ADP-Glo Reagent from ADP-Glo™ Kinase Assay kit and incubated for 40 min to deplete the unreacted ATP. Afterwards, 5 μL of Kinase Detection Reagent from the ADP-Glo™ Kinase Assay kit was added and incubated for 1 hr for the development of luminescence signal.
# Luminesce signals were measured on BMG PHERAstar FSX using luminescence protocol. Data analysis was carried out using Genedata software following % of control normalization. Fitting parameters include dose response IC50, Hill slope (n), maximum inhibition (S∞), and minimum inhibition (S0). The reported IC50 values for compounds in this invention are the geometric means of at least 2 independent replicates.
# WRN [2] = target: T1, WRN; test: WRN Helicase activity assay (fluorescence DNA unwinding); assay type: biochemical; details: 1-hr pre-incubation with enzyme; 100 μM ATP, 25 nM forked dsDNA, 1 nM WRN; geometric mean of at least 2 replicates
# Protocol: Compounds of the examples were tested for WRN helicase activity. DNA encoding the target protein, 6×HIS-TEV-WRN-517-945, was produced, cloned and transfected as detailed in Example D. To determine the inhibitory properties of the compounds, a 384 wells plate-based Helicase assay was set up to measure the extent of DNA unwinding (Helicase) activity of WRN. The WRN Helicase assay was designed to measure increase in fluorescence signal using a fluorescence based, donor-quencher paired forked dsDNA oligomer substrate (custom synthesis from Sigma-Aldrich) prepared by annealing equal amounts of oligo GPat-1 ([BHQ2][…]) and oligo GPat-2 ([…][TAM]). Continuous measurement of fluorescent signal was used to optimize the buffer conditions, concentration of enzyme (WRN), concentration of substrates (ATP & dsDNA), and the linearity of the Helicase reaction. All solutions were prepared in the following assay buffer: 50 mM Tris-HCl, pH-7.5, 2 mM MgCl2, 50 mM NaCl, 1 mM EGTA, 0.01% P-20, 0.05% BSA, and 2 mM DTT prepared with nuclease free water.
# A serial dilution (1:3 scheme) of the compounds was prepared in neat DMSO and 100 nL of the compounds was dispensed in the Greiner black low volume (Greiner #784076) 384 wells assay plate. An 1-hr pre-incubation of the compounds with enzyme was included. A His-tagged construct of WRN (AA S2-S1235) was produced and used for the ATPase assay. Maximum inhibition control wells were set up with the addition of only assay buffer, and no inhibition control wells were set up with neat DMSO without test compounds. The reaction was initiated by addition of 5 μL substrate mix (200 μM ultrapure ATP, and 50 nM dsDNA prepared in assay buffer) and incubated at 25° C. for 35 min. A typical Helicase reaction consists of 25 nM forked dsDNA, 100 μM ATP, and 1 nM WRN prepared in assay buffer. The WRN Helicase reaction was quenched by the addition of 5 μL ‘STOP’ solution containing 100 mM EDTA (final EDTA concentration 33.33 mM) prepared in assay buffer. The plates were read on BMG PHERAstar FSX using 540/590 module to measure an increase of fluorescence. Data analysis was carried out using the Genedata software following % of control normalization. Fitting parameters include dose response IC50, Hill slope (n), maximum inhibition (S∞), and minimum inhibition (S0). The reported IC50 values for compounds in this invention are the geometric means of at least 2 independent replicates.
# T1 sequence (Q14191 2-1235): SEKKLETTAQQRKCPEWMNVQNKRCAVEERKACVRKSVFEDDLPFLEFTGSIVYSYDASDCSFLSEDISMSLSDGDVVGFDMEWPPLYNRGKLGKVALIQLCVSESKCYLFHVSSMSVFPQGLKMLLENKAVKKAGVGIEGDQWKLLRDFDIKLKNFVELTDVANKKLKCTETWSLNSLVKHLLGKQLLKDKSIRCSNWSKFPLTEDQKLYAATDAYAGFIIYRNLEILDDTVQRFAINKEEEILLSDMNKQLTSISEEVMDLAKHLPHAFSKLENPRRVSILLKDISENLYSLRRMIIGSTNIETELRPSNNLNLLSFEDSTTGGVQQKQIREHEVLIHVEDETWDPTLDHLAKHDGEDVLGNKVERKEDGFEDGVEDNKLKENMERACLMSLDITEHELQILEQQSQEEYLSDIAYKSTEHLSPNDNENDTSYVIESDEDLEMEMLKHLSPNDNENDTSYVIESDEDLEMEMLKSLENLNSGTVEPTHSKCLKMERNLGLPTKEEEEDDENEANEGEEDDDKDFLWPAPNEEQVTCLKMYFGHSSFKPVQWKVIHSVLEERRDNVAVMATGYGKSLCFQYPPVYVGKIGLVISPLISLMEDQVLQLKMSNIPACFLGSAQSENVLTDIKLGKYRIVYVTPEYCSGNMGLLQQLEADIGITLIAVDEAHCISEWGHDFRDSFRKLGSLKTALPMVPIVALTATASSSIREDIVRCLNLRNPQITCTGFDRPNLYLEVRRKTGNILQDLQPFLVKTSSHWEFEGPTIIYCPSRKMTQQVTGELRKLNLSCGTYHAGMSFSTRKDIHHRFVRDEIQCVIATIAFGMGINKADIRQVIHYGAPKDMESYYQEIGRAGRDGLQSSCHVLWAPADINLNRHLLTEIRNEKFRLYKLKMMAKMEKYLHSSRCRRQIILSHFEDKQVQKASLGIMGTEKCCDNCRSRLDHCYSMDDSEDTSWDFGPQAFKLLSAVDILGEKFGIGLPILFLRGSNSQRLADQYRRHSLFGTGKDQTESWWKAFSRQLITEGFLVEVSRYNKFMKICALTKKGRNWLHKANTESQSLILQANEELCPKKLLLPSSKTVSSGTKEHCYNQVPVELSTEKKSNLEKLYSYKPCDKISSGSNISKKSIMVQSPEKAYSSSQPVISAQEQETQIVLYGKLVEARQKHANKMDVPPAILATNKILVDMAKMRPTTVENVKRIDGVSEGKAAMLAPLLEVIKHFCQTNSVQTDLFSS
Structure (SMILES),IC50 (WRN [1]) [nM],IC50 (WRN [2]) [nM]
"C=CC(=O)Nc1ccccc1-c1c(CC)nc2n(CC(=O)Nc3ccc(F)cc3)c3ccccc3n2c1=O [Example 1, N-(2-(2-Ethyl-10-(2-((4-fluorophenyl)amino)-2-oxoethyl)-4-oxo-4,10-dihydrobenzo[4,5]imidazo[1,2-a]pyrimidin-3-yl)phenyl)acrylamide]",< 100,< 100
"C=CC(=O)Nc1ccccc1-c1c(CC)nc2n(CC(=O)Nc3ccccc3)c3ccccc3n2c1=O [Example 2, N-(2-(2-Ethyl-4-oxo-10-(2-oxo-2-(phenylamino)ethyl)-4,10-dihydrobenzo[4,5]imidazo[1,2-a]pyrimidin-3-yl)phenyl)acrylamide]",< 100,< 100
"C=CC(=O)Nc1ccccc1-c1c(CC)nc2n(CC(=O)Nc3ccc(C(F)(F)F)cc3)c3ccccc3n2c1=O [Example 3, N-(2-(2-Ethyl-4-oxo-10-(2-oxo-2-((4-(trifluoromethyl)phenyl)amino)ethyl)-4,10-dihydrobenzo[4,5]imidazo[1,2-a]pyrimidin-3-yl)phenyl)acrylamide]",< 100,< 100
"C=CC(=O)Nc1ccccc1-c1c(CC)nc2n(CC(=O)Nc3ccc(C(F)(F)F)cc3Cl)c3ccccc3n2c1=O [Example 4, N-(2-(10-(2-((2-Chloro-4-(trifluoromethyl)phenyl)amino)-2-oxoethyl)-2-ethyl-4-oxo-4,10-dihydrobenzo[4,5]imidazo[1,2-a]pyrimidin-3-yl)phenyl)acrylamide]",< 100,< 100
"C=CC(=O)Nc1ccccc1-c1c(CC)nc2n(CC(=O)Nc3ccc(CC)cc3)c3ccccc3n2c1=O [Example 5, N-(2-(2-Ethyl-10-(2-((4-ethylphenyl)amino)-2-oxoethyl)-4-oxo-4,10-dihydrobenzo[4,5]imidazo[1,2-a]pyrimidin-3-yl)phenyl)acrylamide]",< 100,< 100
"C=CC(=O)Nc1ccccc1-c1c(CC)nc2n(CC(=O)Nc3ccc(F)cc3Cl)c3ccccc3n2c1=O [Example 6, N-(2-(10-(2-((2-Chloro-4-fluorophenyl)amino)-2-oxoethyl)-2-ethyl-4-oxo-4,10-dihydrobenzo[4,5]imidazo[1,2-a]pyrimidin-3-yl)phenyl)acrylamide]",< 100,< 100
"C=CC(=O)Nc1ccccc1-c1c(CC)nc2n(CC(=O)Nc3cccc(C(F)(F)F)c3)c3ccccc3n2c1=O [Example 7, N-(2-(2-Ethyl-4-oxo-10-(2-oxo-2-((3-(trifluoromethyl)phenyl)amino)ethyl)-4,10-dihydrobenzo[4,5]imidazo[1,2-a]pyrimidin-3-yl)phenyl)acrylamide]",100 to 500,100 to 500

# Now from value to compound:
IC50 (WRN [1]) [nM],IC50 (WRN [2]) [nM],Structure (SMILES)
< 100,< 100,"C=CC(=O)Nc1ccccc1-c1c(CC)nc2n(CC(=O)Nc3ccc(F)c(F)c3)c3ccccc3n2c1=O [Example 8, N-(2-(10-(2-((3,4-Difluorophenyl)amino)-2-oxoethyl)-2-ethyl-4-oxo-4,10-dihydrobenzo[4,5]imidazo[1,2-a]pyrimidin-3-yl)phenyl)acrylamide]"
< 100,< 100,"C=CC(=O)Nc1ccccc1-c1c(CC)nc2n(CC(=O)Nc3ccc(F)cc3C)c3ccccc3n2c1=O [Example 9, N-(2-(2-Ethyl-10-(2-((4-fluoro-2-methylphenyl)amino)-2-oxoethyl)-4-oxo-4,10-dihydrobenzo[4,5]imidazo[1,2-a]pyrimidin-3-yl)phenyl)acrylamide]"
1000 to 5000,1000 to 5000,"C=CC(=O)Nc1ccccc1-c1c(CC)nc2n(CC(=O)NC3CCCCC3)c3ccccc3n2c1=O [Example 10, N-(2-(10-(2-(Cyclohexylamino)-2-oxoethyl)-2-ethyl-4-oxo-4,10-dihydrobenzo[4,5]imidazo[1,2-a]pyrimidin-3-yl)phenyl)acrylamide]"
< 100,< 100,"C=CC(=O)Nc1ccc(C(=O)OC)cc1-c1c(CC)nc2n(CC(=O)Nc3ccc(F)cc3)c3ccccc3n2c1=O [Example 11, Methyl 4-acrylamido-3-(2-ethyl-10-(2-((4-fluorophenyl)amino)-2-oxoethyl)-4-oxo-4,10-dihydrobenzo[4,5]imidazo[1,2-a]pyrimidin-3-yl)benzoate]"
100 to 500,100 to 500,"C=CC(=O)Nc1ccc(C(=O)NCCO)cc1-c1c(CC)nc2n(CC(=O)Nc3ccc(F)cc3)c3ccccc3n2c1=O [Example 12, 4-Acrylamido-3-(2-ethyl-10-(2-((4-fluorophenyl)amino)-2-oxoethyl)-4-oxo-4,10-dihydrobenzo[4,5]imidazo[1,2-a]pyrimidin-3-yl)-N-(2-hydroxyethyl) benzamide]"
100 to 500,100 to 500,"C=CC(=O)Nc1ccc(C(=O)NCCOC)cc1-c1c(CC)nc2n(CC(=O)Nc3ccc(F)cc3)c3ccccc3n2c1=O [Example 13, 4-Acrylamido-3-(2-ethyl-10-(2-((4-fluorophenyl)amino)-2-oxoethyl)-4-oxo-4,10-dihydrobenzo[4,5]imidazo[1,2-a]pyrimidin-3-yl)-N-(2-methoxyethyl) benzamide]"
100 to 500,100 to 500,"C=CC(=O)Nc1ccc(C(=O)N2CC3CC3(O)C2)cc1-c1c(CC)nc2n(CC(=O)Nc3ccc(F)cc3)c3ccccc3n2c1=O (centres unmarked) [Example 14, N-(2-(2-Ethyl-10-(2-((4-fluorophenyl)amino)-2-oxoethyl)-4-oxo-4,10-dihydrobenzo[4,5]imidazo[1,2-a]pyrimidin-3-yl)-4-(1-hydroxy-3-azabicyclo[3.1.0]hexane-3-carbonyl)phenyl) acrylamide]"
< 100,< 100,"C=CC(=O)Nc1cc(C#N)ccc1-c1c(CC)nc2n(CC(=O)Nc3ccc(C(F)(F)F)cc3)c3ccccc3n2c1=O [Example 15, N-(5-Cyano-2-(2-ethyl-4-oxo-10-(2-oxo-2-((4-(trifluoromethyl)phenyl)amino)ethyl)-4,10-dihydrobenzo[4,5]imidazo[1,2-a]pyrimidin-3-yl)phenyl)acrylamide]"
1000 to 5000,5000 to 20000,"C=CC(=O)Nc1nn(C)cc1-c1c(CC)nc2n(CC(=O)Nc3ccc(C(F)(F)F)cc3)c3ccccc3n2c1=O [Example 16, N-(4-(2-Ethyl-4-oxo-10-(2-oxo-2-((4-(trifluoromethyl)phenyl)amino)ethyl)-4,10-dihydrobenzo[4,5]imidazo[1,2-a]pyrimidin-3-yl)-1-methyl-1H-pyrazol-3-yl)acrylamide]"
